Structures can show the parent of a compound that is named as a salt.
What was measured:
MDA-MB-231 = test: XTT antiproliferative assay, MDA-MB-231; format: cell-based; conditions: Homo sapiens, 72 h, mean ± SD
Protocol: (§1) All the synthesized 4-anilinoquinolinylchalcone derivatives were evaluated in vitro against two cancer cells (Huh-7 and MDA-MB-231) and a non-cancer normal fibroblast lung cell line (MRC-5) using an XTT (sodium 3′-[1-(phenylamino-carbonyl)-3,4-tetrazolium}-bis(4-methoxy-6-nitro)benzene sulfonic acid hydrate) assay. The concentration that inhibited the growth of 50% of cells (IC50) was determined from the linear portion of the curve by calculating the concentration of the tested agent that reduced absorbance in treated cells, compared to control cells, by 50%. The IC50 results of these 4-anilinoquinolinylchalcone derivatives are summarized (Table 1). […] Thus, 4a was selected as a lead compound for further mechanism studies.
(§2) Cancer cells (Huh-7, MDA-MB-231) and normal lung cells (MRC-5) were purchased from Bioresources Collection and Research Center, Taiwan. Cells were maintained in the same standard medium, grown as a monolayer in DMEM (Gibco, Miami, FL, USA), and supplemented with 10% fetal bovine serum (FBS) and antibiotics, i.e., 100 IU/mL penicillin, 0.1 mg/mL streptomycin and 0.25 μg/mL amphotericin. The culture was maintained at 37 °C with 5% CO2 in a humidified atmosphere. Cells (5 × 10^3 cells/well) were treated with tested compounds for 72 h in the medium containing 10% FBS. Cell viability was quantitated with the use of sodium 3′-[1-(phenylamino-carbonyl)-3,4-tetrazolium}-bis(4-methoxy-6-nitro)benzene sulfonic acid hydrate (XTT) colorimetric assay (Biological Industries, Beit-Haemek, Israel). XTT labeling reagent (1 mg/mL) was mixed with electron-coupling reagent, following the manufacturer’s instructions, and 50 μL of the mixture was added directly to the cells. The plates were further incubated at 37 °C for 4 h. Color was measured spectrophotometrically in a microtiter plate reader at 492 nm and used as a relative measurement of viable cell numbers. After drug treatment, the viable cell number was compared to the solvent and untreated control cell number. This information was used to determine the percent of control growth as (Abtreated/Abcontrol) × 100, where Ab represents the mean absorbance (n = 3). The concentration that killed 50% of cells (IC50) was determined from the linear portion of the curve by calculating the concentration of the agent that reduced the absorbance in treated cells, compared to control cells, by 50%.

Huh-7 = test: XTT antiproliferative assay, Huh-7; format: cell-based; conditions: Homo sapiens, 72 h, mean ± SD
Protocol: as §1, §2

MRC-5 = test: XTT antiproliferative assay, normal lung cells MRC-5; format: cell-based; conditions: Homo sapiens, MRC5, 72 h, mean ± SD
Protocol: as §1, §2

SMILES: COc1ccc(C(=O)/C=C/c2cc(Nc3ccc(OCc4ccccc4)cc3)c3ccccc3n2)cc1 (as salt: salt) [Compound 4a, (E)-3-{4-{[4-(Benzyloxy)phenyl]amino}quinolin-2-yl}-1-(4-methoxyphenyl)prop-2-en-1-one]
- melting point: 200 to 201 °C

SMILES: COc1ccc(C(=O)/C=C/c2cc(Nc3ccc(OCc4ccccc4Cl)cc3)c3ccccc3n2)cc1 (as salt: salt) [Compound 4b, (E)-3-{4-{{4-[(2-Chlorobenzyl)oxy]phenyl}amino}quinolin-2-yl}-1-(4-methoxy - phenyl) prop-2-en-1-one]
- melting point: 160 to 161 °C

SMILES: COc1ccc(C(=O)/C=C/c2cc(Nc3ccc(OCc4ccccc4F)cc3)c3ccccc3n2)cc1 (as salt: salt) [Compound 4c]
- melting point: 175 to 176 °C

SMILES: COc1ccc(C(=O)/C=C/c2cc(Nc3ccc(OCc4cccc(Cl)c4)cc3)c3ccccc3n2)cc1 (as salt: salt) [Compound 4d, (E)-3-{4-{{4-[(3-Chlorobenzyl)oxy]phenyl}amino}quinolin-2-yl}-1-(4-methoxy-phenyl) prop-2-en-1-one]
- melting point: 132 to 133 °C

SMILES: COc1ccc(C(=O)/C=C/c2cc(Nc3ccc(OCc4cccc(F)c4)cc3)c3ccccc3n2)cc1 (as salt: salt) [Compound 4e, (E)-3-{4-{{4-[(3-Fluorobenzyl)oxy]phenyl}amino}quinolin-2-yl}-1-(4-methoxy-phenyl) prop-2-en-1-one]
- melting point: 171 to 172 °C

SMILES: COc1ccc(C(=O)/C=C/c2cc(Nc3ccc(OCc4ccc(Cl)cc4)cc3)c3ccccc3n2)cc1 (as salt: salt) [Compound 4g, (E )-3-{4-{{4-[(4-Chlorobenzyl)oxy]phenyl}amino}quinolin-2-yl}-1-(4-methoxy - phenyl)prop-2-en-1-one]
- melting point: 142 to 143 °C

SMILES: COc1ccc(C(=O)/C=C/c2cc(Nc3ccc(OCc4ccc(F)cc4)cc3)c3ccccc3n2)cc1 (as salt: salt) [Compound 4h, (E)-3-{4-{ {4-[ (4-Fluorobenzyl)oxy]phenyl}amino}quinolin-2-yl}-1-(4-methoxy - phenyl)prop-2-en-1-one]
- melting point: 176 to 177 °C

SMILES: O=C(/C=C/c1cc(Nc2ccc(OCc3ccccc3)cc2)c2ccccc2n1)c1ccc(F)cc1 (as salt: salt) [Compound 5a, (E)-3-{4-{[4-(Benzyloxy)phenyl]amino}quinolin-2-yl}-1-(4-fluorophenyl)prop-2-en-1-one]
- melting point: 162 to 163 °C

SMILES: O=C(/C=C/c1cc(Nc2ccc(OCc3ccccc3Cl)cc2)c2ccccc2n1)c1ccc(F)cc1 (as salt: salt) [Compound 5b, (E)-3-{4-{{4-[(2-Chlorobenzyl)oxy]phenyl}amino}quinolin-2-yl}-1-(4-fluorophenyl) prop-2-en-1-one]
- melting point: 192 to 193 °C

SMILES: O=C(/C=C/c1cc(Nc2ccc(OCc3ccccc3F)cc2)c2ccccc2n1)c1ccc(F)cc1 (as salt: salt) [Compound 5c, (E)-3-{4-{{4-[(2-Fluorobenzyl)oxy]phenyl}amino}quinolin-2-yl}-1-(4-fluorophenyl) prop-2-en-1-one]
- melting point: 207 to 208 °C

SMILES: O=C(/C=C/c1cc(Nc2ccc(OCc3cccc(Cl)c3)cc2)c2ccccc2n1)c1ccc(F)cc1 (as salt: salt) [Compound 5d, (E)-3-{4-{{4-[(3-Chlorobenzyl)oxy]phenyl}amino}quinolin-2-yl}-1-(4-fluorophenyl) prop-2-en-1-one]
- melting point: 172 to 173 °C

SMILES: O=C(/C=C/c1cc(Nc2ccc(OCc3cccc(F)c3)cc2)c2ccccc2n1)c1ccc(F)cc1 (as salt: salt) [Compound 5e, (E)-3-{4-{{4-[(3-Fluorobenzyl)oxy]phenyl}amino}quinolin-2-yl}-1-(4-fluorophenyl)prop-2-en-1-one]
- melting point: 213 to 214 °C

SMILES: COc1ccc(C(=O)/C=C/c2cc(Nc3ccc(OCc4ccccc4Cl)cc3)c3ccccc3n2)cc1 [Compound 4b, (E)-3-{4-{{4-[(2-Chlorobenzyl)oxy]phenyl}amino}quinolin-2-yl}-1-(4-methoxy - phenyl) prop-2-en-1-one]
- IC50 (MDA-MB-231): 1.59 ± 0.15 µM
- IC50 (Huh-7): 1.83 ± 0.22 µM
- IC50 (MRC-5): > 20 µM

SMILES: COc1ccc(C(=O)/C=C/c2cc(Nc3ccc(OCc4ccccc4F)cc3)c3ccccc3n2)cc1 [Compound 4c]
- IC50 (MDA-MB-231): 1.04 ± 0.04 µM
- IC50 (Huh-7): 0.81 ± 0.06 µM
- IC50 (MRC-5): > 20 µM

SMILES: COc1ccc(C(=O)/C=C/c2cc(Nc3ccc(OCc4cccc(Cl)c4)cc3)c3ccccc3n2)cc1 [Compound 4d, (E)-3-{4-{{4-[(3-Chlorobenzyl)oxy]phenyl}amino}quinolin-2-yl}-1-(4-methoxy-phenyl) prop-2-en-1-one]
- IC50 (MDA-MB-231): 0.18 ± 0.06 µM
- IC50 (Huh-7): 0.69 ± 0.04 µM
- IC50 (MRC-5): > 20 µM

SMILES: COc1ccc(C(=O)/C=C/c2cc(Nc3ccc(OCc4cccc(F)c4)cc3)c3ccccc3n2)cc1 [Compound 4e, (E)-3-{4-{{4-[(3-Fluorobenzyl)oxy]phenyl}amino}quinolin-2-yl}-1-(4-methoxy-phenyl) prop-2-en-1-one]
- IC50 (MDA-MB-231): 0.54 ± 0.11 µM
- IC50 (Huh-7): 1.45 ± 0.28 µM
- IC50 (MRC-5): > 20 µM

SMILES: COc1ccc(C(=O)/C=C/c2cc(Nc3ccc(OCc4cccc(OC)c4)cc3)c3ccccc3n2)cc1 [Compound 4f, (E)-3-{4-{{4-[(3-Methoxybenzyl)oxy]phenyl}amino}quinolin-2-yl}-1-(4-methoxy - phenyl)prop-2-en-1-one]
- IC50 (MDA-MB-231): 1.94 ± 0.52 µM
- IC50 (Huh-7): 1.41 ± 0.04 µM
- IC50 (MRC-5): > 20 µM

SMILES: COc1ccc(C(=O)/C=C/c2cc(Nc3ccc(OCc4ccc(Cl)cc4)cc3)c3ccccc3n2)cc1 [Compound 4g, (E )-3-{4-{{4-[(4-Chlorobenzyl)oxy]phenyl}amino}quinolin-2-yl}-1-(4-methoxy - phenyl)prop-2-en-1-one]
- IC50 (MDA-MB-231): 1.71 ± 0.35 µM
- IC50 (Huh-7): 1.31 ± 0.56 µM
- IC50 (MRC-5): > 20 µM

SMILES: COc1ccc(C(=O)/C=C/c2cc(Nc3ccc(OCc4ccc(F)cc4)cc3)c3ccccc3n2)cc1 [Compound 4h, (E)-3-{4-{ {4-[ (4-Fluorobenzyl)oxy]phenyl}amino}quinolin-2-yl}-1-(4-methoxy - phenyl)prop-2-en-1-one]
- IC50 (MDA-MB-231): 1.69 ± 0.21 µM
- IC50 (Huh-7): 1.37 ± 0.28 µM
- IC50 (MRC-5): > 20 µM

SMILES: O=C(/C=C/c1cc(Nc2ccc(OCc3ccccc3)cc2)c2ccccc2n1)c1ccc(F)cc1 [Compound 5a, (E)-3-{4-{[4-(Benzyloxy)phenyl]amino}quinolin-2-yl}-1-(4-fluorophenyl)prop-2-en-1-one]
- IC50 (MDA-MB-231): 1.65 ± 0.77 µM
- IC50 (Huh-7): 1.24 ± 0.09 µM
- IC50 (MRC-5): > 20 µM

SMILES: O=C(/C=C/c1cc(Nc2ccc(OCc3ccccc3Cl)cc2)c2ccccc2n1)c1ccc(F)cc1 [Compound 5b, (E)-3-{4-{{4-[(2-Chlorobenzyl)oxy]phenyl}amino}quinolin-2-yl}-1-(4-fluorophenyl) prop-2-en-1-one]
- IC50 (MDA-MB-231): 1.53 ± 0.21 µM
- IC50 (Huh-7): 1.24 ± 0.3 µM
- IC50 (MRC-5): > 20 µM

SMILES: O=C(/C=C/c1cc(Nc2ccc(OCc3ccccc3F)cc2)c2ccccc2n1)c1ccc(F)cc1 [Compound 5c, (E)-3-{4-{{4-[(2-Fluorobenzyl)oxy]phenyl}amino}quinolin-2-yl}-1-(4-fluorophenyl) prop-2-en-1-one]
- IC50 (MDA-MB-231): 1.42 ± 0.7 µM
- IC50 (Huh-7): 1.25 ± 0.07 µM
- IC50 (MRC-5): > 20 µM

SMILES: O=C(/C=C/c1cc(Nc2ccc(OCc3cccc(Cl)c3)cc2)c2ccccc2n1)c1ccc(F)cc1 [Compound 5d, (E)-3-{4-{{4-[(3-Chlorobenzyl)oxy]phenyl}amino}quinolin-2-yl}-1-(4-fluorophenyl) prop-2-en-1-one]
- IC50 (MDA-MB-231): 1.76 ± 0.13 µM
- IC50 (Huh-7): 1.28 ± 0.21 µM
- IC50 (MRC-5): > 20 µM

SMILES: O=C(/C=C/c1cc(Nc2ccc(OCc3cccc(F)c3)cc2)c2ccccc2n1)c1ccc(F)cc1 [Compound 5e, (E)-3-{4-{{4-[(3-Fluorobenzyl)oxy]phenyl}amino}quinolin-2-yl}-1-(4-fluorophenyl)prop-2-en-1-one]
- IC50 (MDA-MB-231): 1.82 ± 0.28 µM
- IC50 (Huh-7): 1.27 ± 0.06 µM
- IC50 (MRC-5): > 20 µM

SMILES: COc1cccc(COc2ccc(Nc3cc(/C=C/C(=O)c4ccc(F)cc4)nc4ccccc34)cc2)c1 [Compound 5f, (E)-1-(4-Fluorophenyl)-3-{4-{{4-[(3-methoxybenzyl)oxy]phenyl}amino}quinolin-2-yl}prop-2-en-1-one]
- IC50 (MDA-MB-231): 2.03 ± 0.14 µM
- IC50 (Huh-7): 1.34 ± 0.35 µM
- IC50 (MRC-5): > 20 µM

SMILES: O=C(/C=C/c1cc(Nc2ccc(OCc3ccc(Cl)cc3)cc2)c2ccccc2n1)c1ccc(F)cc1 [Compound 5g, (E)-3-{4-{{4-[(4-Chlorobenzyl)oxy]phenyl}amino}quinolin-2-yl}-1-(4-fluorophenyl)prop-2-en-1-one]
- IC50 (MDA-MB-231): 1.5 ± 0.77 µM
- IC50 (Huh-7): 1.3 ± 0.14 µM
- IC50 (MRC-5): > 20 µM

SMILES: O=C(/C=C/c1cc(Nc2ccc(OCc3ccc(F)cc3)cc2)c2ccccc2n1)c1ccc(F)cc1 [Compound 5h, (E)-3-{4-{{4-[(4-Fluorobenzyl)oxy]phenyl}amino}quinolin-2-yl}-1-(4-fluorophenyl)prop-2-en-1-one]
- IC50 (MDA-MB-231): 1.68 ± 0.21 µM
- IC50 (Huh-7): 1.29 ± 0.28 µM
- IC50 (MRC-5): > 20 µM
